Values quoted from earlier work as cited in patent US20260108502A1, “ORAL DELIVERY FORMULATIONS USING SELF EMULSIFYING GRANULES AND LIPID BASED GRANULES” (BOARD OF REGENTS, THE UNIVERSITY OF TEXAS SYSTEM, priority 2024, published 2026).

strongest basic pKa: 2.84
Structure (SMILES): CC(C)c1nc(CN(C)C(=O)N[C@H](C(=O)N[C@@H](Cc2ccccc2)C[C@H](O)[C@H](Cc2ccccc2)NC(=O)OCc2cncs2)C(C)C)cs1 [Ritonavir]
